# Values of other authors as cited in patent US8673356B2, “Stable fixed dose topical formulation” (Glenmark Pharmaceuticals Limited, priority 2008, dated 2014).
# Key:
# [1] = converted in vivo by hydrolysis to active clindamycin
Solubility in ethanol (ethanol),Solubility in tetrahydrofuran (tetrahydrofuran),Solubility in water,Compound,Activity in vitro [1]
very slightly soluble,soluble,practically insoluble,"COc1ccc(-c2ccc3cc(C(=O)O)ccc3c2)cc1C12CC3CC(CC(C3)C1)C2 [Adapalene, 6-[3-(1-adamantyl)-4-methoxyphenyl]-2-naphthoic acid]",
,,water soluble,"CCC[C@@H]1C[C@@H](C(=O)NC(C2O[C@H](SC)[C@H](OP(=O)(O)O)[C@@H](O)[C@H]2O)[C@H](C)Cl)N(C)C1 (stereo partly drawn) [Clindamycin phosphate, methyl 7-chloro-6,7,8-trideoxy-6-(1-methyl-trans-4-propyl-L-2-pyrrolidinecarboxamido)-1-thio-L-threo-D-galactooctopyranoside 2-(dihydrogen phosphate)]",inactive
